In ChEMBL document CHEMBL5705888, “Substrate specificity and inhibitors of LRRK2, a protein kinase mutated in Parkinson's disease” (Biochem J, 2009):

Assays:
[1] = target: AMP-activated protein kinase, AMPK (Homo sapiens) (UniProt P54646+O43741+P54619+Q9UGJ0+Q9Y478+Q13131+Q9UGI9); assay: Inhibition of AMPK (unknown origin) at 1 uM incubated for 30 mins in presence of [gamma-33P]ATP by multidrop micro reagent based assay relative to control; values are per cent of control
[2] = target: MAP/microtubule affinity-regulating kinase 3 (Homo sapiens) (UniProt P27448); assay: Inhibition of MARK3 (unknown origin) at 1 uM incubated for 30 mins in presence of [gamma-33P]ATP by multidrop micro reagent based assay relative to control; values are per cent of control
Chain of MAP/microtubule affinity-regulating kinase 3 (Homo sapiens) (P27448 whole entry, looked up): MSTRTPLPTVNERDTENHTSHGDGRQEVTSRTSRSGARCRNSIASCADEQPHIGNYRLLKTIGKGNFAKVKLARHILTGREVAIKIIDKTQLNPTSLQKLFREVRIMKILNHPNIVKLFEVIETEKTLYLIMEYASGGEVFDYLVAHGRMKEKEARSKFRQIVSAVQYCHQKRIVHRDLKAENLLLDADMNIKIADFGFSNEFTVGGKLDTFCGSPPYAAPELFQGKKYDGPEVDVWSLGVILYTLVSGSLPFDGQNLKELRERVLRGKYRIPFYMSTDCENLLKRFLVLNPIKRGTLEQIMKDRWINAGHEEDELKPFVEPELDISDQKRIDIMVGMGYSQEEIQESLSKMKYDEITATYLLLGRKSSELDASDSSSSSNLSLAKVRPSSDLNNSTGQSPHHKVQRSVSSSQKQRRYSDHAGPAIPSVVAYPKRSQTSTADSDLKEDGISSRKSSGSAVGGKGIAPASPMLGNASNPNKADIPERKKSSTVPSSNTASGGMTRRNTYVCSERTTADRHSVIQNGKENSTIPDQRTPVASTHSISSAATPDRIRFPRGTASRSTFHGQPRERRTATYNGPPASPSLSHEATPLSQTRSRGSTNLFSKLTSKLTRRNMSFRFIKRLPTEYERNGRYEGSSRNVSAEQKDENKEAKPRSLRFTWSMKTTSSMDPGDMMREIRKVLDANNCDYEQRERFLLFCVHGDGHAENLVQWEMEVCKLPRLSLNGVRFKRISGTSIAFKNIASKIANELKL

[3] = target: MAP kinase-interacting serine/threonine-protein kinase 2 (Homo sapiens) (UniProt Q9HBH9); assay: Inhibition of MNK2 (unknown origin) at 1 uM incubated for 30 mins in presence of [gamma-33P]ATP by multidrop micro reagent based assay relative to control; values are per cent of control
Chain of MAP kinase-interacting serine/threonine-protein kinase 2 (Homo sapiens) (Q9HBH9 whole entry, looked up): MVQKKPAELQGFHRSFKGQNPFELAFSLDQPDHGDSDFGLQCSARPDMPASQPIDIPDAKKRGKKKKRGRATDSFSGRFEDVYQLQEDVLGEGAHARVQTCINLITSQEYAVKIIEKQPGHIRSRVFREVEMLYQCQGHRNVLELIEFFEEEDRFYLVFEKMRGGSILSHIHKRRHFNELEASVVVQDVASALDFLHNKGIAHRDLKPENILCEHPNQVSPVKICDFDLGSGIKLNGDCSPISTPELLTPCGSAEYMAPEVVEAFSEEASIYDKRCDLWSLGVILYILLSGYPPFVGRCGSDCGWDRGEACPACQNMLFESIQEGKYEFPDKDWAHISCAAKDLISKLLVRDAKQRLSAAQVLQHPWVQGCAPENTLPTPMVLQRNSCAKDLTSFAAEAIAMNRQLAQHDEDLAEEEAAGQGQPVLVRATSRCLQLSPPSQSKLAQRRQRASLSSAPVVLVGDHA

[4] = target: Ribosomal protein S6 kinase alpha-1 (Homo sapiens) (UniProt Q15418); assay: Inhibition of RSK1 (unknown origin) at 1 uM incubated for 30 mins in presence of [gamma-33P]ATP by multidrop micro reagent based assay relative to control; values are per cent of control
Chain of Ribosomal protein S6 kinase alpha-1 (Homo sapiens) (Q15418 whole entry): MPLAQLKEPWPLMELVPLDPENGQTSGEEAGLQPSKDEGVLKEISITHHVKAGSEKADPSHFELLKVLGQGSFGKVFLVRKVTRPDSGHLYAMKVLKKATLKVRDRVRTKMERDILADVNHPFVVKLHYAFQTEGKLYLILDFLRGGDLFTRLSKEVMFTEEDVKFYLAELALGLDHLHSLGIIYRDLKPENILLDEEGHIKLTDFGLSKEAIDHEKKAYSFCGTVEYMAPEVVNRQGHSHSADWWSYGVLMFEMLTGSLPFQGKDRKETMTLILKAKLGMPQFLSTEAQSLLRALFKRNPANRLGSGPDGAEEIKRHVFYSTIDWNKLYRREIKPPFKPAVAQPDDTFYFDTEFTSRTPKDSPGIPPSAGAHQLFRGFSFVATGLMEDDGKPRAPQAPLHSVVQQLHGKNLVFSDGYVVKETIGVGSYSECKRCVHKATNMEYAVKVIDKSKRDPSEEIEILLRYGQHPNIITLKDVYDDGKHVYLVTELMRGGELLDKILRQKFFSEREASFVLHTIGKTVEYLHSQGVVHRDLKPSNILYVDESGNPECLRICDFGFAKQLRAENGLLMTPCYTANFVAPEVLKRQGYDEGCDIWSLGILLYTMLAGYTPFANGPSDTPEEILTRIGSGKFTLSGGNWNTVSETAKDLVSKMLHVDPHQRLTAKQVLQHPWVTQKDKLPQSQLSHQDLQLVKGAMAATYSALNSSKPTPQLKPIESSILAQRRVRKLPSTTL

[5] = target: T1, Serine/threonine-protein kinase STK11 (Homo sapiens) (UniProt Q15831); assay: Inhibition of LKB1 (unknown origin) at 1 uM incubated for 30 mins in presence of [gamma-33P]ATP by multidrop micro reagent based assay relative to control
T1 sequence (whole entry): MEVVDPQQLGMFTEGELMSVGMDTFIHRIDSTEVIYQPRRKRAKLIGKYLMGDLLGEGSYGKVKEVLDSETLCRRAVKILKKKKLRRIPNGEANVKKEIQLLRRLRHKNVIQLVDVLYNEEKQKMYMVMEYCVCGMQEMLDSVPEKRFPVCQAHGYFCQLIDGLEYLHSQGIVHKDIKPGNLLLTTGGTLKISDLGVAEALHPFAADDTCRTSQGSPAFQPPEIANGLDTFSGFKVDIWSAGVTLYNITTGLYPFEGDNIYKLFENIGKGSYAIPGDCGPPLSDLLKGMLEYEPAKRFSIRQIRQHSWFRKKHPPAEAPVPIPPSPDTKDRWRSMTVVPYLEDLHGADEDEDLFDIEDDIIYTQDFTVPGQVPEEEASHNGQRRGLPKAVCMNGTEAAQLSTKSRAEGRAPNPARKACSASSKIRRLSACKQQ

[6] = target: T2, Serine/threonine-protein kinase TBK1 (Homo sapiens) (UniProt Q9UHD2); assay: Inhibition of TBK1 (unknown origin) at 1 uM incubated for 30 mins in presence of [gamma-33P]ATP by multidrop micro reagent based assay relative to control; values are per cent of control
T2 sequence (whole entry): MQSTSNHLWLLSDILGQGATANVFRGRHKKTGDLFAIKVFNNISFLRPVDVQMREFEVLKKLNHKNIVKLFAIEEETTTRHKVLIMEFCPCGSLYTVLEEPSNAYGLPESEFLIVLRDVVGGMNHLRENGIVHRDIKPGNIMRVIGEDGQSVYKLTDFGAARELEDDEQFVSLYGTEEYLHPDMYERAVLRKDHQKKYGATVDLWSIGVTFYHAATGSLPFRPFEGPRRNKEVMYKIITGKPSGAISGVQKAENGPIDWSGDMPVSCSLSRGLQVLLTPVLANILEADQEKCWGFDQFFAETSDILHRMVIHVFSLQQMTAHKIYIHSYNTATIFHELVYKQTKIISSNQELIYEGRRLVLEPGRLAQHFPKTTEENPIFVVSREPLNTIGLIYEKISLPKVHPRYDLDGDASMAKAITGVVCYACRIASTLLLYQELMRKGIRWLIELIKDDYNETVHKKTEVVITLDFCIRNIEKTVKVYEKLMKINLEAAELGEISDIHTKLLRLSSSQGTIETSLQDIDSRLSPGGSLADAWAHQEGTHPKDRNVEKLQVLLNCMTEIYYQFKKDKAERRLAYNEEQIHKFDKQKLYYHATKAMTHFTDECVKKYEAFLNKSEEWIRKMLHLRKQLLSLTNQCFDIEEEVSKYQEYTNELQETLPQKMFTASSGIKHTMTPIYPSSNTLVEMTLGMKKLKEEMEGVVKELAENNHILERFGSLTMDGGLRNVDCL

[7] = target: Ribosomal protein S6 kinase alpha-5 (Homo sapiens) (UniProt O75582); assay: Inhibition of MSK1 (unknown origin) at 1 uM incubated for 30 mins in presence of [gamma-33P]ATP by multidrop micro reagent based assay relative to control; values are per cent of control
Chain of Ribosomal protein S6 kinase alpha-5 (Homo sapiens) (O75582 whole entry, looked up): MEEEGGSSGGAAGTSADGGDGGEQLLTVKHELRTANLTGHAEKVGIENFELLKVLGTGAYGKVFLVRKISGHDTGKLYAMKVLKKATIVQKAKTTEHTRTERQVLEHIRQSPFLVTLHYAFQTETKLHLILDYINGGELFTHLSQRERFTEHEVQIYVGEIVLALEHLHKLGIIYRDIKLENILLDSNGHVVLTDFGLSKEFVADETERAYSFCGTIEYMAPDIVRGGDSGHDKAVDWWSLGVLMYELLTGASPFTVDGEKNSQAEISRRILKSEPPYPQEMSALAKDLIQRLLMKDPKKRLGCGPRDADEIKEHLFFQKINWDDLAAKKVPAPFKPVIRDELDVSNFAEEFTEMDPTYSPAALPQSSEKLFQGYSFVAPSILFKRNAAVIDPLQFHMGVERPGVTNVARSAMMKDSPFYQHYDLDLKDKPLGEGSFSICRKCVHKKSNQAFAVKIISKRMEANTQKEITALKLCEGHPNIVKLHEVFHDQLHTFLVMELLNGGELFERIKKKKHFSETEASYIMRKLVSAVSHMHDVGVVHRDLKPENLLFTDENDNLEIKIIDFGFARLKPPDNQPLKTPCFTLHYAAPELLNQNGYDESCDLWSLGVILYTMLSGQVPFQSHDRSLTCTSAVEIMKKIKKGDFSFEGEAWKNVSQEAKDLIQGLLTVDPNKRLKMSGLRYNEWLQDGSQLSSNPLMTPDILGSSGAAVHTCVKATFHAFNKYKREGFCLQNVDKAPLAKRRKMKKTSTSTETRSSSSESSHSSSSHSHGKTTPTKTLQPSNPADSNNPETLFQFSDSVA

[8] = target: T3, Dual specificity tyrosine-phosphorylation-regulated kinase 2 (Homo sapiens) (UniProt Q92630); assay: Inhibition of DYRK2 (unknown origin) at 1 uM incubated for 30 mins in presence of [gamma-33P]ATP by multidrop micro reagent based assay relative to control; values are per cent of control
T3 sequence (whole entry): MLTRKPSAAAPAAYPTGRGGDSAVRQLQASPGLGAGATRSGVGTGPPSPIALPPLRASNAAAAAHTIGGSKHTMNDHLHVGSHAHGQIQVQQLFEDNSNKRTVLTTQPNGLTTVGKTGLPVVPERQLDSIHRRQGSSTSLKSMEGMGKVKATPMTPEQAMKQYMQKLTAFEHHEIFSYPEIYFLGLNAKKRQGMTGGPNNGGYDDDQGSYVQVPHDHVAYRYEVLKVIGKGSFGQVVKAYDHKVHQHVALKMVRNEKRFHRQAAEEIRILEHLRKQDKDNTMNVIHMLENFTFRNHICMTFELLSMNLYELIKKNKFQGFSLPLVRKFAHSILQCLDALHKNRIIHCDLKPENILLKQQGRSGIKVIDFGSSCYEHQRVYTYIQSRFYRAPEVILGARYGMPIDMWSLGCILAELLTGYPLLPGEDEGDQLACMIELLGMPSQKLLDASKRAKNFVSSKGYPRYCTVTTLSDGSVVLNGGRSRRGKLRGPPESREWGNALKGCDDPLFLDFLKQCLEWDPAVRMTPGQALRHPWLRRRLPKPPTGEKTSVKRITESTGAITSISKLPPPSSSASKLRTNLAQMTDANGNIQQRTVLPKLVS

[9] = target: Tyrosine-protein kinase BTK (Homo sapiens) (UniProt Q06187); assay: Inhibition of BTK (unknown origin) at 1 uM incubated for 30 mins in presence of [gamma-33P]ATP by multidrop micro reagent based assay relative to control
Chain of Tyrosine-protein kinase BTK (Homo sapiens) (Q06187 whole entry): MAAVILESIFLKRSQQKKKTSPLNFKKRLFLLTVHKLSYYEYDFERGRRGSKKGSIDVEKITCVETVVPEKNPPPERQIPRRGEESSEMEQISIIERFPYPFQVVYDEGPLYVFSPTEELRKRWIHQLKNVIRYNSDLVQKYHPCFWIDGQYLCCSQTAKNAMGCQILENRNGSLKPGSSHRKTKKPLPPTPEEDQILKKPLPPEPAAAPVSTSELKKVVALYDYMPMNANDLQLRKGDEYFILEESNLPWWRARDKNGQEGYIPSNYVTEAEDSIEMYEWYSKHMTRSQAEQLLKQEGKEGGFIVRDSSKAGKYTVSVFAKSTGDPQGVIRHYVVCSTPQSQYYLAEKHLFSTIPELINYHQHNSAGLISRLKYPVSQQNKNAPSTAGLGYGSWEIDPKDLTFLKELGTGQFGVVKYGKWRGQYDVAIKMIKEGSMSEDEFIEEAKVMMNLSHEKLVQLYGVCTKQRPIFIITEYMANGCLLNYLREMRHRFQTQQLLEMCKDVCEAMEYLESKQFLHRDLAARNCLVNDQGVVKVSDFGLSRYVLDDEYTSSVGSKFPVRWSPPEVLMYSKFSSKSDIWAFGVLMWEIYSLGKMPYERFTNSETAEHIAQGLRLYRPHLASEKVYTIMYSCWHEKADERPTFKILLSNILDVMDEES

[10] = target: Serine/threonine-protein kinase Nek6 (Homo sapiens) (UniProt Q9HC98); assay: Inhibition of NEK6 (unknown origin) at 1 uM incubated for 30 mins in presence of [gamma-33P]ATP by multidrop micro reagent based assay relative to control; values are per cent of control
Chain of Serine/threonine-protein kinase Nek6 (Homo sapiens) (Q9HC98 whole entry): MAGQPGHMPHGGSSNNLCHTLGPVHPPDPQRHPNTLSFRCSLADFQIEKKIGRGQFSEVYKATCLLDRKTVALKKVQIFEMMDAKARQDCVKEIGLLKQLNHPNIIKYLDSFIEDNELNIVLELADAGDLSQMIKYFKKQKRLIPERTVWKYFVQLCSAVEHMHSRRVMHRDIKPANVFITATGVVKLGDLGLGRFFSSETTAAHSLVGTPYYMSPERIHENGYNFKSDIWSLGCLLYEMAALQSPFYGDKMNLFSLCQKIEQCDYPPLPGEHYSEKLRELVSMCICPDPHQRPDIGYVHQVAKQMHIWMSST

Row | SMILES | residual activity [1] | residual activity [2] | residual activity [3] | residual activity [4] | inhibition [5] | residual activity [6] | residual activity [7] | residual activity [8] | inhibition [9] | residual activity [10]
1 | Cc1cncc2cccc(S(=O)(=O)N3CCCNC[C@@H]3C)c12 | 45% | 56% | 49% | 57% | 50% | 98% | 39% | 84% | 82% | 99%
2 | CCn1c(-c2nonc2N)nc2cnc(Oc3cccc(NC(=O)c4ccc(OCCN5CCOCC5)cc4)c3)cc21 [GSK-269962A] |  | 67% | 51% | 12% | 58% | 77% | 1% | 64% | 107% | 82%
3 | CC1=C(C(=O)Nc2cc3cn[nH]c3cc2F)C(c2ccc(C(F)(F)F)cc2)CC(=O)N1 (stereo not drawn) | 78% | 98% | 88% | 20% | 58% | 101% | 20% | 92% | 66% | 87%
4 | CCN(CC)CCNC(=O)c1c(C)[nH]c(/C=C2\C(=O)Nc3ccc(F)cc32)c1C | 15% |  |  | 78% |  | 54% | 60% |  |  | 
